Measured values published in US6905861B2, “D-aminoacylases, method for producing the same, and method for producing D-amino acids using the same” (Daicel Chemical Industries, Ltd., priority 1998, dated 2005).

Key:
[1] = tested on: Hypomyces aurantius IFO 6847 strain; assay: D-amino acid production from N-acetyl-D-amino acid by washed fungal cells; assay type: cell-based; conditions: Hypomyces aurantius IFO 6847 cells; 0.1% substrate, Tris-HCl pH 7.5, 30° C., 24 hours
Experimental: (§1) A platinum loopful of Hypomyces aurantius IFO 6847 strain, Hypomyces broomeanus IFO 9164 strain, Hypomyces rosellus IFO 6911 strain, Hypomyces chrysospermus IFO 6817 strain, Hypomyces sepulcralis IFO 9102 strain, Hypomyces subiculosus IFO 6892 strain, Hypomyces mycophilus ATCC 76474 or IFO 6785 strain, or Fusarium solani IFO 9974 or IFO 9975 strain was inoculated into 25 ml of YM medium (containing 0.3% yeast extract, 0.3% malt extract, 0.5% peptone, and 2.0% glucose, pH 6.0) in a 500-ml shouldered flask. The fungi were shake-cultured at 24° C. for 3 days. After culturing, a 5-ml aliquot of the culture medium was centrifuged in a refrigerated centrifuge to collect the fungal cells. The cells were washed with physiological saline solution (5 ml) and collected by centrifugation again. A reaction solution (containing 0.1% N-acetyl-D-amino acid shown in Table 1 below in Tris-HCl buffer, pH 7.5) was then added to the cells thus collected. The mixture was incubated in a 5-ml test tube with shaking at 30° C. for 24 hours.
(§2) D-Amino acid thus produced was determined by high-performance liquid chromatography (column, CROWNPAK CR (Daicel Chemical); column temperature, 26° C.; cooled in ice for only valine; mobile phase, HClO4 aqueous solution, pH 2.0; flow rate, 1 ml/min; and detection, 200 nm).

[2] = tested on: Hypomyces sepulcralis IFO 9102 strain; assay: as above; assay type: cell-based; conditions: Hypomyces sepulcralis IFO 9102 cells; 0.1% substrate, Tris-HCl pH 7.5, 30° C., 24 hours
Experimental: as §1, §2

[3] = tested on: Fusarium solani IFO 9975 strain; assay: as above; assay type: cell-based; conditions: Fusarium solani IFO 9975 cells; 0.1% substrate, Tris-HCl pH 7.5, 30° C., 24 hours
Experimental: as §1, §2

[4] = tested on: Hypomyces mycophilus IFO 6785 strain; assay: as above; assay type: cell-based; conditions: Hypomyces mycophilus IFO 6785 cells; 0.1% substrate, Tris-HCl pH 7.5, 30° C., 24 hours
Experimental: as §1, §2

[5] = tested on: Hypomyces broomeanus IFO 9164 strain; assay: as above; assay type: cell-based; conditions: Hypomyces broomeanus IFO 9164 cells; 0.1% substrate, Tris-HCl pH 7.5, 30° C., 24 hours
Experimental: as §1, §2

[6] = tested on: Hypomyces rosellus IFO 6911 strain; assay: as above; assay type: cell-based; conditions: Hypomyces rosellus IFO 6911 cells; 0.1% substrate, Tris-HCl pH 7.5, 30° C., 24 hours
Experimental: as §1, §2

[7] = tested on: Hypomyces chrysospermus IFO 6817 strain; assay: as above; assay type: cell-based; conditions: Hypomyces chrysospermus IFO 6817 cells; 0.1% substrate, Tris-HCl pH 7.5, 30° C., 24 hours
Experimental: as §1, §2

[8] = tested on: Hypomyces mycophilus ATCC 76474; assay: as above; assay type: cell-based; conditions: Hypomyces mycophilus ATCC 76474 cells; 0.1% substrate, Tris-HCl pH 7.5, 30° C., 24 hours
Experimental: as §1, §2

Fusarium solani IFO 9974 = assay: as above; assay type: cell-based; conditions: Fusarium solani IFO 9974 cells; 0.1% substrate, Tris-HCl pH 7.5, 30° C., 24 hours
Experimental: as §1, §2

[9] = tested on: Hypomyces subiculosus IFO 6892 strain; assay: as above; assay type: cell-based; conditions: Hypomyces subiculosus IFO 6892 cells; 0.1% substrate, Tris-HCl pH 7.5, 30° C., 24 hours
Experimental: as §1, §2

[10] = tested on: D-aminoacylase (crude enzyme) of Auricularia auriculajudae IFO 5949; assay: Crude enzyme activity for each N-Ac-D-amino acid substrate; assay type: biochemical; conditions: Auricularia auriculajudae IFO 5949 crude enzyme; 20 mM substrate, 1 mM CoCl2, 50 mM phosphate buffer pH 7.0
Experimental: (§3) Auricularia auriculajudae IFO 5949, Pythium aphanidermaatum IFO 7030, and Menisporopsis novaezelandiae IFO 9179 were each inoculated into sterilized media (100 ml each) (Czapek Dox Broth for IFO 5949, YM1 medium for IFO 7030, and POTATO DEXTROSE BROTH for IFO 9179) in 500-ml Erlenmeyer flasks. The fungi were cultured on a rotary shaker at 210 rpm at 24° C. for 7 days and collected by centrifugation using a […] centrifuge with a RPR10-2 rotor at 8,000 rpm (12,500×g) for 20 min. […] Disrupted cells thus obtained were centrifuged using a […] centrifuge with a RPR20-2 rotor at 17,500 rpm (38,000×g) for 30 min at 4° C. to obtain the supernatant as the crude enzyme. […] Figures in the table denote the amount (mM) of D-amino acids produced from the corresponding N-acetyl-D-amino acids. The D-aminoacylase activity was detected in all the strains tested, producing D-amino acid from the corresponding N-acetyl-D-amino acid.

[11] = tested on: D-aminoacylase (crude enzyme) of Pythium aphanidermaatum IFO 7030; assay: as above; assay type: biochemical; conditions: Pythium aphanidermaatum IFO 7030 crude enzyme; 20 mM substrate, 1 mM CoCl2, 50 mM phosphate buffer pH 7.0
Experimental: as §3

[12] = tested on: D-aminoacylase (crude enzyme) of Menisporopsis novaezelandiae IFO 9179; assay: as above; assay type: biochemical; conditions: Menisporopsis novaezelandiae IFO 9179 crude enzyme; 20 mM substrate, 1 mM CoCl2, 50 mM phosphate buffer pH 7.0
Experimental: as §3

D-aminoacylase = assay: Substrate specificity of purified D-aminoacylase (TNBS method); assay type: biochemical, Hypomyces mycophilus IFO 6785
Experimental: The enzyme activity was assayed by determining the amount of amino acid produced using the TNBS method and the HPLC method. In the TMBS method, 100 mM Na2B4O7 (0.5 ml) was added to a sample solution containing amino acid (0.5 ml), 20 μl of 110 mM TNBS (trinitrobenzenesulfonic acid) was then added, and the resulting mixture was quickly stirred. After 5 min, 100 mM NaH2PO4 containing 1.5 mM Na2SO3 (2 ml) was added to the reaction mixture to terminate the color reaction, and the absorbance at 420 nm was measured. HPLC was performed by subjecting a sample solution containing amino acid to high-performance liquid chromatography using an ODS column (column, Wakosil II 5C18 (4.6 dia.×250 mm) (Wako Pure Chemical); eluent, CH3CN/50 mM KH2PO4. H3PO4 (pH 2.5)=2:8; detection, A280 nm; and flow rate, 1.0 ml/min). The retention times were 3.5 min for D-tryptophan and 9.8 min for N-acetyl-D-tryptophan. Using D-tryptophan as the assay standard, one unit (or U) of the enzyme was defined as the amount of the enzyme required to produce 1 μmol of D-tryptophan at 30° C. for 1 min.
Substrate specificity of the enzyme was expressed as the percentage of the specific activity compared with that for N-acetyl-D-methionine taken as 100%. N-chloroacetyl-D-phenylalanine, N-acetyl-D-valine, N-acetyl-D-phenylalanine, N-acetyl-D-tryptophan, N-acetyl-D-leucine, N-acetyl-L-valine, N-acetyl-L-phenylalanine, N-acetyl-L-tryptophan, and N-acetyl-L-leucine substrates were used for the comparison. The enzyme reaction was performed in 50 mM Tris-HCl (pH 7.5) containing 1 µl of the enzyme solution and 20 mM of each substrate (total volume 1.0 ml) at 30° C. for 20 min, and terminated by adding 0.5 ml of a TCA reaction terminating solution according to Tsai et al. (consisting of 110 mM trichloroacetic acid, 220 mM sodium acetate, and 330 mM acetic acid). The enzyme activity was assayed by the TNBS method as described in Example 4(2).

For `CSCC[C@@H](NC(C)=O)C(=O)O` [N-acetyl-D-methionine], the “D-amino acid produced from N-acetyl-D-amino acid” value (“D-amino acid produced” below) [1] was 0.02 mg/mL, the “D-amino acid produced” value [2] was 0.24 mg/mL and the “D-amino acid produced” value [3] was 0.02 mg/mL. For the same molecule, the “D-amino acid produced” value [4] was 0.71 mg/mL, the “D-amino acid produced” value [5] was 0.01 mg/mL and the “D-amino acid produced” value [6] was 0.14 mg/mL. For the same molecule, the “D-amino acid produced” value [7] was 0.12 mg/mL, the “D-amino acid produced” value [8] was 0.10 mg/mL and the “D-amino acid produced” value (Fusarium solani IFO 9974) was 0.04 mg/mL. For the same molecule, the “D-amino acid produced” value [9] was 0.03 mg/mL, the “amount of D-amino acids produced from the corresponding N-acetyl-D-amino acids” value (shortened to “amount of D-amino acids produced”) [10] was 2.45 mM and the “amount of D-amino acids produced” value [11] was 0.90 mM. The “amount of D-amino acids produced” value [12] was 0.89 mM, the “percentage of the specific activity compared with that for N-acetyl-D-methionine taken as 100%, D-enantiomer” value (D-aminoacylase; 20 mM substrate, 50 mM Tris-HCl pH 7.5, 30° C., 20 min) was 100% and the “activity of the enzyme for the substrate (in words)” value (D-aminoacylase; summary of Table 5) was “very active”.
